Experimental data published in ChEMBL document CHEMBL1147193, “New 5-substituted thiazolo[3,2-b][1,2,4]triazol-6-ones: synthesis and anticancer evaluation” (2007).

Columns and labels:
Type in all cases: functional
[1] = tested on: HCC 2998; assay: Growth inhibition of human HCC2998 cells after 48 hrs by SRB protein assay; settings: HCC 2998, 48 h
[2] = tested on: UACC-257; assay: Growth inhibition of human UACC257 cells after 48 hrs by SRB protein assay; settings: UACC-257, 48 h
[3] = tested on: OVCAR-4; assay: Growth inhibition of human OVCAR4 cells after 48 hrs by SRB protein assay; settings: OVCAR-4, 48 h
[4] = tested on: UO-31; assay: Growth inhibition of human UO31 cells after 48 hrs by SRB protein assay; settings: UO-31, 48 h
[5] = tested on: HT-29; assay: Growth inhibition of human HT29 cells after 48 hrs by SRB protein assay; settings: HT-29, 48 h
[6] = tested on: HCT-15; assay: Growth inhibition of human HCT15 cells after 48 hrs by SRB protein assay; settings: HCT-15, 48 h
[7] = tested on: A549; assay: Growth inhibition of human A549/ATCC cells after 48 hrs by SRB protein assay; settings: A549, 48 h
[8] = tested on: SF-295; assay: Growth inhibition of human SF295 cells after 48 hrs by SRB protein assay; settings: SF-295, 48 h
[9] = tested on: CAKI-1; assay: Growth inhibition of human CAKI1 cells after 48 hrs by SRB protein assay; settings: CAKI-1, 48 h
[10] = tested on: NCI-H226; assay: Growth inhibition of human NCI-H226 cells after 48 hrs by SRB protein assay; settings: NCI-H226, 48 h
[11] = tested on: UACC-62; assay: Growth inhibition of human UACC62 cells after 48 hrs by SRB protein assay; settings: UACC-62, 48 h
[12] = tested on: ACHN; assay: Growth inhibition of human ACHN cells after 48 hrs by SRB protein assay
[13] = tested on: NCI-H460; assay: Anticancer activity against human NCI-H460 cells assessed as growth of cells at 100 uM relative to untreated cells
[14] = tested on: NCI-H522; assay: Growth inhibition of human NCI-H522 cells after 48 hrs by SRB protein assay; settings: NCI-H522, 48 h
[15] = tested on: K562; assay: Growth inhibition of human K562 cells after 48 hrs by SRB protein assay; settings: K562, 48 h
[16] = tested on: OVCAR-5; assay: Growth inhibition of human OVCAR5 cells after 48 hrs by SRB protein assay; settings: OVCAR-5, 48 h
[17] = tested on: RPMI-8226; assay: Growth inhibition of human RPMI8226 cells after 48 hrs by SRB protein assay; settings: RPMI-8226, 48 h
[18] = tested on: Hs-578T; assay: Growth inhibition of human HS578T cells after 48 hrs by SRB protein assay
[19] = tested on: BT-549; assay: Growth inhibition of human BT549 cells after 48 hrs by SRB protein assay; settings: BT-549, 48 h
[20] = tested on: LOX IMVI; assay: Growth inhibition of human LOX IMVI cells after 48 hrs by SRB protein assay
[21] = tested on: SK-MEL-5; assay: Growth inhibition of human SK-MEL-5 cells after 48 hrs by SRB protein assay; settings: SK-MEL-5, 48 h
[22] = tested on: HOP-92; assay: Growth inhibition of human HOP92 cells after 48 hrs by SRB protein assay; settings: HOP-92, 48 h
[23] = tested on: MCF7; assay: Anticancer activity against human MCF7 cells assessed as growth of cells at 100 uM relative to untreated cells
[24] = tested on: SF-268; assay: Growth inhibition of human SF268 cells after 48 hrs by SRB protein assay; settings: SF-268, 48 h
[25] = Growth inhibition of human MALME 3M cells after 48 hrs by SRB protein assay
[26] = tested on: MCF7; assay: Growth inhibition of human MCF7 cells after 48 hrs by SRB protein assay; settings: MCF7, 48 h
[27] = tested on: U-251; assay: Growth inhibition of human U251 cells after 48 hrs by SRB protein assay; settings: U-251, 48 h
[28] = tested on: M14; assay: Growth inhibition of human M14 cells after 48 hrs by SRB protein assay; settings: M14, 48 h
[29] = tested on: 786-0; assay: Growth inhibition of human 786-0 cells after 48 hrs by SRB protein assay; settings: 786-0, 48 h
[30] = tested on: HCT-116; assay: Growth inhibition of human HCT116 cells after 48 hrs by SRB protein assay; settings: HCT-116, 48 h
[31] = tested on: RXF 393; assay: Growth inhibition of human RXF393 cells after 48 hrs by SRB protein assay; settings: RXF 393, 48 h
[32] = tested on: PC-3; assay: Growth inhibition of human PC3 cells after 48 hrs by SRB protein assay; settings: PC-3, 48 h
[33] = tested on: SK-MEL-2; assay: Growth inhibition of human SK-MEL-2 cells after 48 hrs by SRB protein assay; settings: SK-MEL-2, 48 h
[34] = Growth inhibition of human MDA-MB-231/ATCC cells after 48 hrs by SRB protein assay; settings: MDA-MB-231, 48 h
[35] = tested on: SN12C; assay: Growth inhibition of human SN12C cells after 48 hrs by SRB protein assay
[36] = tested on: OVCAR-8; assay: Growth inhibition of human OVCAR8 cells after 48 hrs by SRB protein assay; settings: OVCAR-8, 48 h
[37] = tested on: NCI/ADR-RES; assay: Growth inhibition of human NCI/ADR-RES cells after 48 hrs by SRB protein assay
[38] = tested on: KM12; assay: Growth inhibition of human KM12 cells after 48 hrs by SRB protein assay; settings: KM12, 48 h
[39] = tested on: SF-268; assay: Anticancer activity against human SF268 cells assessed as growth of cells at 100 uM relative to untreated cells
[40] = tested on: OVCAR-3; assay: Growth inhibition of human OVCAR-3 cells after 48 hrs by SRB protein assay; settings: OVCAR-3, 48 h

For `O=c1/c(=C/c2ccc(F)cc2)sc2ncnn12`, the GI50 [1] was 63.1 µM, the TGI ([1]; read-out: Log TGI (converted)) was > 100 µM and the GI50 [2] was 95.5 µM. For the same compound, the TGI ([2]; read-out: Log TGI (converted)) was > 100 µM, the GI50 [3] was 34.7 µM and the TGI ([3]; read-out: Log TGI (converted)) was > 100 µM. The GI50 [4] was 69.2 µM, the TGI ([4]; read-out: Log TGI (converted)) was > 100 µM and the GI50 [5] was 45.7 µM. For the same compound, the TGI ([5]; read-out: Log TGI (converted)) was > 100 µM, the GI50 [6] was 63.1 µM and the TGI ([6]; read-out: Log TGI (converted)) was > 100 µM. The GI50 [7] was 87.1 µM, the TGI ([7]; read-out: Log TGI (converted)) was > 100 µM and the GI50 [8] was 52.5 µM. The TGI ([8]; read-out: Log TGI (converted)) was > 100 µM, the GI50 [9] was 69.2 µM and the TGI ([9]; read-out: Log TGI (converted)) was > 100 µM. The GI50 [10] was > 100 µM, the TGI ([10]; read-out: Log TGI (converted)) was > 100 µM and the GI50 [11] was 66.1 µM. For the same compound, the TGI ([11]; read-out: Log TGI (converted)) was > 100 µM, the GI50 [12] was 81.3 µM and the TGI ([12]; read-out: Log TGI (converted)) was > 100 µM. The Activity [13] was 13%, the GI50 [14] was 50.1 µM and the TGI ([14]; read-out: Log TGI (converted)) was > 100 µM. For the same compound, the GI50 [15] was 38.9 µM, the TGI ([15]; read-out: Log TGI (converted)) was > 100 µM and the GI50 [16] was 55 µM. For the same compound, the TGI ([16]; read-out: Log TGI (converted)) was > 100 µM, the GI50 [17] was 26.3 µM and the TGI ([17]; read-out: Log TGI (converted)) was 79.4 µM. The GI50 [18] was 69.2 µM, the TGI ([18]; read-out: Log TGI (converted)) was > 100 µM and the GI50 [19] was 42.7 µM. The TGI ([19]; read-out: Log TGI (converted)) was 100 µM, the GI50 [20] was 37.2 µM and the TGI ([20]; read-out: Log TGI (converted)) was > 100 µM. For the same compound, the GI50 [21] was 41.7 µM, the TGI ([21]; read-out: Log TGI (converted)) was > 100 µM and the GI50 [22] was 47.9 µM. The TGI ([22]; read-out: Log TGI (converted)) was > 100 µM, the Activity [23] was 77% and the GI50 [24] was 33.9 µM. For the same compound, the TGI ([24]; read-out: Log TGI (converted)) was > 100 µM, the GI50 [25] was > 100 µM and the TGI ([25]; read-out: Log TGI (converted)) was > 100 µM. The GI50 [26] was 32.4 µM, the TGI ([26]; read-out: Log TGI (converted)) was > 100 µM and the GI50 [27] was 60.3 µM. The TGI ([27]; read-out: Log TGI (converted)) was > 100 µM, the GI50 [28] was 28.8 µM and the TGI ([28]; read-out: Log TGI (converted)) was > 100 µM. The GI50 [29] was 51.3 µM, the TGI ([29]; read-out: Log TGI (converted)) was > 100 µM and the GI50 [30] was 33.9 µM. The TGI ([30]; read-out: Log TGI (converted)) was > 100 µM, the GI50 [31] was 46.8 µM and the TGI ([31]; read-out: Log TGI (converted)) was 100 µM. The GI50 [32] was 53.7 µM, the TGI ([32]; read-out: Log TGI (converted)) was > 100 µM and the GI50 [33] was > 100 µM. For the same compound, the TGI ([33]; read-out: Log TGI (converted)) was 51.3 µM, the GI50 [34] was > 100 µM and the TGI ([34]; read-out: Log TGI (converted)) was > 100 µM. The GI50 [35] was 40.7 µM, the TGI ([35]; read-out: Log TGI (converted)) was > 100 µM and the GI50 [36] was 44.7 µM. The TGI ([36]; read-out: Log TGI (converted)) was > 100 µM, the GI50 [37] was 38 µM and the TGI ([37]; read-out: Log TGI (converted)) was > 100 µM. For the same compound, the GI50 [38] was 35.5 µM, the TGI ([38]; read-out: Log TGI (converted)) was > 100 µM and the Activity [39] was 70%. The GI50 [40] was 37.2 µM and the TGI ([40]; read-out: Log TGI (converted)) was > 100 µM.
